The text below walks through data of US9415021B2, “Synthesis of oxygen carrying, turbulence resistant, high density submicron particulates” (Nanoshell Company, LLC, priority 2009, dated 2016).

A short description of this data set: Oxygen content of suspensions by glucose assay solution (glucose oxidase/peroxidase, absorbance at 540 nm) and Equation 1. It is filed as physicochemical. Conditions: 37° C., 1 AP.

Experimental: To confirm the oxygen carrying capability of the single coated nanoemulsion particle AOCs, the amount of dissolved oxygen in water was measured. The linear dependence of the absorbance at 540 nm in response to the concentration of glucose was first confirmed at 37° C. in the presence of sufficient amount of oxygen, and then the limiting amount of oxygen concentration was estimated in the presence of sufficient amount of glucose. […] The DI water was added to make the total volume 1.41 μl and the absorbance determined at 540 nm. The absorbance was plotted against the molar concentration of dissolved oxygen assuming that the air at 1 AP and 37° C., water contains 215.6 μmol/L of O2. The experimentally determined oxygen content in the coated AOC suspension is a composite of oxygen content in water and in the perfluorocarbon. Quantitatively, CO2 total=CO2 PFC VPFC+CO2 water Vwater=CO2 PFC VPFC+CO2 water(1−VPFC) (Equation 1) where, CO2 total is the total oxygen concentration of the sample, and CO2 PFC and CO2 water are the concentrations of oxygen in PFC and water at a given partial pressure of oxygen and temperature, and similarly V's are the volume fractions of PFC and water. […] The reaction was allowed to proceed for 30 minutes at 37° C. and the absorption was measured at 540 nm in order to estimate the amount of oxygen present in the uncoated and coated products.

In the case of `FC(F)(F)C(F)(F)C(F)(F)C(F)(F)C(F)(F)C(F)(F)C(F)(F)C(F)(F)Br` [emulsified PFOB, perfluorooctylbromide], the “oxygen content, estimated CSAT” value was 3,640 μmol/L.
